{"source": "paper PMC7041945", "about": "“Misfolded proteins bind and activate death receptor 5 to trigger apoptosis during unresolved endoplasmic reticulum stress” (eLife, 2020)", "key": {"HCT116 cells": {"test_system": "HCT116 cells", "assay": "Annexin V (and SytoxBlue) flow cytometry for apoptosis", "assay_type": "cell-based, Homo sapiens", "method": "Cells seeded in a 6-well plate were transfected with the specified plasmid for 24 hr and harvested via trypsinization in complete media to allow a 30 min recovery at 37°C. The samples were then centrifuged at 500xg for 5 min and resuspended In 150 μl of a 1:20 dilution of Annexin V-AlexaFluor 647 conjugate (Thermo Scientific #A23204). Samples were transferred to a 96-well U-bottom plate and incubated in the dark for 15 min at RT. The distribution of apoptotic cells was determined by flow cytometry on a BD LSR II."}, "GAPDH": {"test_system": "GAPDH", "assay": "qPCR of GAPDH (reference transcript)", "assay_type": "cell-based", "conditions": "24 hr, Rep 2"}, "[1]": {"test_system": "caspase 8 in HCT116 lysates", "assay": "Caspase 8 activity (caspase glo 8) of cell lysates / IP inputs", "assay_type": "cell-based, Homo sapiens", "method": "Cells harvested from a 6-well plate were resuspended in 100 μl of lysis buffer (30 mM HEPES pH 7.2, 150 mM NaCl, 1% Triton X-100) and lysed via needle shearing (25G, 10 passes) followed by a 30 min incubation on ice. Supernatant was collected after centrifuging at 1000xg for 5 min. For the caspase activity assay, 10 μl of supernatant diluted with lysis buffer (1:25, 1:50, 1:100 to stay within linear range of luminescence measurements) was incubated with 10 μl of the luminogenic caspase glo 8 substrate (Promega #PRG8200) in a 384-white walled plate (Corning 3574) for 45 min at RT before measuring luminescence on a Spectramax-M5 plate reader."}, "[2]": {"conditions": "empty + Tg, siRNA non-targeting, stain AnnexinV-647, 2018-06-27"}, "[3]": {"conditions": "siRNA scrambled, 2017-01-17 Replicate"}, "[4]": {"conditions": "siRNA scrambled, 2018-06-21 Rep 1"}, "[5]": {"conditions": "siRNA scrambled, 2018-06-21 Rep 2"}, "[6]": {"conditions": "siRNA scrambled, mean of 3 replicates"}}, "data": [{"smiles": "C/C=C(/C)C(=O)O[C@H]1C(C)=C2[C@H]([C@@H]1OC(=O)CCCCCCC)[C@@](C)(OC(C)=O)C[C@H](OC(=O)CCC)[C@@]1(O)[C@H]2OC(=O)[C@@]1(C)O", "note": "[thapsigargin, reference compound]", "values": [{"measurement": "AnnexinV+ (Statistic)", "setting": "HCT116 cells; [2]", "value": 18.2}, {"measurement": "AnnexinV- (Statistic)", "setting": "HCT116 cells; [2]", "value": 81.8}, {"measurement": "Difference between means", "setting": "HCT116 cells; empty w Tg vs. empty", "value": "28 ± 7.5"}, {"measurement": "Mean ± SEM (Prism T-tests, Annexin V for MPZ-GFP)", "setting": "HCT116 cells; no siDR5, mean ± SEM, N=3, values agree with avg Annexin V+", "value": "35 ± 6.7", "unit": "N=3"}, {"measurement": "Annexin V+", "setting": "HCT116 cells; [3]", "value": 48.1}, {"measurement": "Annexin V-", "setting": "HCT116 cells; [3]", "value": 51.9}, {"measurement": "AnnexinV+ (Statistic, single cells)", "setting": "HCT116 cells; siRNA scrambled, 2018-01-17 MPZ, gate all cells/Single Cells/AnnexinV+, Tg sample with empty construct", "value": 48.1}, {"measurement": "AnnexinV- (Statistic, single cells)", "setting": "HCT116 cells; siRNA scrambled, 2018-01-17 MPZ, gate all cells/Single Cells/AnnexinV-, Tg sample with empty construct", "value": 51.9}, {"measurement": "GFP+ (Statistic, single cells)", "setting": "HCT116 cells; siRNA scrambled, 2018-01-17 MPZ, gate all cells/Single Cells/GFP+, Tg sample with empty construct", "value": 0.011}, {"measurement": "GFP- (Statistic, single cells)", "setting": "HCT116 cells; siRNA scrambled, 2018-01-17 MPZ, gate all cells/Single Cells/GFP-, Tg sample with empty construct", "value": 100}, {"measurement": "Q1: APC-A- , DAPI-A+ (Statistic, single cells)", "setting": "HCT116 cells; siRNA scrambled, 2018-01-17 MPZ, gate all cells/Single Cells/Q1, Tg sample with empty construct", "value": 10.8}, {"measurement": "Q2: APC-A+ , DAPI-A+ (Statistic, single cells)", "setting": "HCT116 cells; siRNA scrambled, 2018-01-17 MPZ, gate all cells/Single Cells/Q2, Tg sample with empty construct", "value": 31.2}, {"measurement": "Q3: APC-A+ , DAPI-A- (Statistic, single cells)", "setting": "HCT116 cells; siRNA scrambled, 2018-01-17 MPZ, gate all cells/Single Cells/Q3, Tg sample with empty construct", "value": 13.1}, {"measurement": "Q4: APC-A- , DAPI-A- (Statistic, single cells)", "setting": "HCT116 cells; siRNA scrambled, 2018-01-17 MPZ, gate all cells/Single Cells/Q4, Tg sample with empty construct", "value": 45}, {"measurement": "SytoxBlue+ (Statistic, single cells)", "setting": "HCT116 cells; siRNA scrambled, 2018-01-17 MPZ, gate all cells/Single Cells/SytoxBlue+, Tg sample with empty construct", "value": 40.3}, {"measurement": "SytoxBlue- (Statistic, single cells)", "setting": "HCT116 cells; siRNA scrambled, 2018-01-17 MPZ, gate all cells/Single Cells/SytoxBlue-, Tg sample with empty construct", "value": 59.7}, {"measurement": "dead cells (Statistic)", "setting": "HCT116 cells; siRNA scrambled, 2018-01-17 MPZ, gate dead cells of all events, Tg sample with empty construct", "value": 26.5}, {"measurement": "FITC-A+ (Statistic, dead cells)", "setting": "HCT116 cells; siRNA scrambled, 2018-01-17 MPZ, gate dead cells/Single Cells/FITC-A+, Tg sample with empty construct", "value": 0.016}, {"measurement": "FITC-A- (Statistic, dead cells)", "setting": "HCT116 cells; siRNA scrambled, 2018-01-17 MPZ, gate dead cells/Single Cells/FITC-A-, Tg sample with empty construct", "value": 100}, {"measurement": "Annexin V+", "setting": "HCT116 cells; [4]", "value": 32.2}, {"measurement": "Annexin V-", "setting": "HCT116 cells; [4]", "value": 67.8}, {"measurement": "Annexin V+", "setting": "HCT116 cells; [5]", "value": 25.7}, {"measurement": "Annexin V-", "setting": "HCT116 cells; [5]", "value": 74.3}, {"measurement": "avg Annexin V+", "setting": "HCT116 cells; [6]", "value": 35.3333}, {"measurement": "avg Annexin V-", "setting": "HCT116 cells; [6]", "value": 64.6667}, {"measurement": "Cq GAPDH", "setting": "GAPDH; mean of 3 replicates", "value": 18.752}, {"measurement": "avg. fold induction GAPDH", "setting": "GAPDH; relative to empty traffo, mean of 3 replicates", "value": 1.009}, {"measurement": "fold induction GAPDH", "setting": "GAPDH; relative to empty traffo, replicate 1", "value": 0.7989}, {"measurement": "fold induction GAPDH", "setting": "GAPDH; relative to empty traffo, replicate 2", "value": 1.157}, {"measurement": "fold induction GAPDH", "setting": "GAPDH; relative to empty traffo, replicate 3", "value": 1.071}, {"measurement": "2^-(deltaCq) GAPDH", "setting": "GAPDH; replicate 1", "value": 0.8014}, {"measurement": "Cq GAPDH", "setting": "GAPDH; replicate 1", "value": 19.0714}, {"measurement": "Cq(sample) - avg Cq(GAPDH), GAPDH", "setting": "GAPDH; replicate 1", "value": 0.3194}, {"measurement": "2^-(deltaCq) GAPDH", "setting": "GAPDH; replicate 2", "value": 1.161}, {"measurement": "Cq GAPDH", "setting": "GAPDH; replicate 2", "value": 18.5367}, {"measurement": "Cq(sample) - avg Cq(GAPDH), GAPDH", "setting": "GAPDH; replicate 2", "value": -0.2154}, {"measurement": "2^-(deltaCq) GAPDH", "setting": "GAPDH; replicate 3", "value": 1.075}, {"measurement": "Cq GAPDH", "setting": "GAPDH; replicate 3", "value": 18.648}, {"measurement": "Cq(sample) - avg Cq(GAPDH), GAPDH", "setting": "GAPDH; replicate 3", "value": -0.104}, {"measurement": "average fold change relative to empty", "setting": "[1]; HCT116, rep 1, no siRNA named, average of 4 dilutions", "value": 1.771, "unit": "fold change"}, {"measurement": "fold change relative to empty", "setting": "[1]; input, dilution 0.01, rep1", "value": 1.802}, {"measurement": "fold change relative to empty", "setting": "[1]; input, dilution 0.01, rep2", "value": 2.141}, {"measurement": "fold change relative to empty", "setting": "[1]; input, dilution 0.01, rep3", "value": 1.451}, {"measurement": "fold change relative to empty", "setting": "[1]; input, dilution 0.02, rep1", "value": 2.44}, {"measurement": "fold change relative to empty", "setting": "[1]; input, dilution 0.02, rep2", "value": 1.968}, {"measurement": "fold change relative to empty", "setting": "[1]; input, dilution 0.02, rep3", "value": 1.816}, {"measurement": "avg fold change", "setting": "[1]; input, dilution 0.02, second listing, relative to avg. empty, average of rep1-rep3", "value": 2.105}, {"measurement": "fold change relative to empty", "setting": "[1]; input, dilution 0.02, second listing, rep2", "value": 1.992}, {"measurement": "fold change relative to empty", "setting": "[1]; input, dilution 0.02, second listing, rep3", "value": 1.959}]}]}
